Reference: article PMC12163684, “Gunacins: Novel Benzo[g]chromene Derivatives from the Fungus Exobasidium sp. and Their Potent Anti-Leishmania and Trypanosoma Activities” (ACS Omega, 2025)
≈ marks a conversion by molar mass, not a printed value.

Columns and labels:
[1] = test system: HeLa adenocarcinoma cell line; experiment: Effect on cell morphology, fluorescence microscopy (MitoTracker Red CMXRos, Phalloidin, DAPI); format: cell-based; details: 24 h; for concentration at which effects on morphology / mitochondrial signal were observed, HeLa cells: tested at 5, 25, 50, 100, 125 μM
Experimental: (§1) MDCK and RAT cells were cultured in DMEM with 10% FBS at 37 °C in a 5% CO2 atmosphere as described previously. , To assess the toxic effects of the compounds on proliferating cells, cells were seeded in 24-well plates for 24 h to reach ∼15% confluence, and cells were treated in triplicate with increasing concentrations of the isolated compounds for an additional 24 h. Cells were washed with 1× PBS, fixed in staining solution (0.5% crystal violet, 20% methanol) for 10 min, and gently washed five times in 1× PBS. The fixed cells were then dissolved in lysis solution (0.1 M sodium citrate, 25% ethanol, pH 4.2) for 30 min, transferred to a 96-well plate in H2O, and the OD^590 was determined. EC50 values were determined using GraphPad Prism software and the dose–response fit equation. The EC50 values were determined from two independent experiments. Additionally, the impact of the isolated substances on the morphology of the HeLa adenocarcinoma cell line and primary human skin fibroblasts was examined by using fluorescence microscopy. Cells were cultured in DME medium supplemented with 10% FCS (Gibco, Invitrogen, Carlsbad, USA) on glass coverslips in 24-well plates until reaching approximately 50% confluence. The cells were treated with varying concentrations of isolated compounds dissolved in DMSO. Wells containing DMEM with DMSO served as the negative control. After 24 h cultivation, the cells were incubated with MitoTracker Red CMXRos (10 min) to label mitochondria, then fixed with 3.7% paraformaldehyde in PBS (20 min, room temperature), permeabilized with 0.1% Triton X-100 in PBS, and blocked with 1% BSA in PBS. The cells were then stained with Phalloidin-Alexa Fluor488 conjugate. All fluorescence reagents were purchased from Molecular Probes, Invitrogen, Carlsbad, CA, USA. Nuclei were stained with Fluoroshield DAPI (Sigma-Aldrich), and cells were examined using an IX71 microscope equipped with a DP70 camera and a 40× objective. Assays were performed at concentrations of 5, 25, 50, 100, and 125 μM.

[2] = test system: primary human skin fibroblasts; experiment: as above; format: cell-based; details: 24 h; for concentration at which effects on morphology / mitochondrial signal were observed, fibroblasts: tested at 5, 25, 50, 100, 125 μM
Experimental: as §1

[3] = test system: Trypanosoma congolense IL3000; experiment: Anti-trypanosomal activity, resazurin (AB assay), bloodstream form; format: cell-based; details: 72 h, axenic, 48 h + 24 h resazurin, read-out: EC50 T. congolense
Experimental: (§2) The bloodstream forms of T. b. gambiense LiTat 1.3, T. b. brucei 427, and T. b. evansi AnTat 3/3 were grown in HMI-11 medium pH 7.3 supplemented with 36 mM sodium bicarbonate, 100 U/mL penicillin/streptomycin, and 10% fetal bovine serum at 37 °C and 5% CO2. The bloodstream form of Trypanosoma congolense IL3000 (generous gift from Liam Morrison) was cultured in TcBSF-1 medium pH 7.3 supplemented with 26 mM sodium bicarbonate, 25 mM HEPES, 5.5 mM glucose, 1 mM sodium pyruvate, 0.04 mM adenosine, 0.1 mM hypoxanthine, 0.02 mM thymidine, 0.02 mM bathocuproine, 2 mM L-glutamine, 0.2 mM 2-mercaptoethanol, 100 U/ml penicillin/streptomycin, and 20% goat serum New Zealand origin (Gibco) at 34 °C, 5% CO2. The assay for anti-trypanosomal activity was performed using the resazurin sodium salt dye (AB Assay) according to the published protocol in a 96-well plate format. Parasites at a number of 5 × 10^3 per well (T. b. brucei and T. b. gambiense) or 1 × 10^4 per well (T. b. evansi) were incubated with different drug concentrations (2-fold serial dilutions) in a volume of 200 μL of the medium. Medium with 1% DMSO (the highest concentration of the solvent used in the assay) was used to confirm no effect of the solvent on the cell growth. The plates were incubated for 48 h at the appropriate temperature. Then, 20 μL of resazurin sodium salt solution (0.125 mg/mL in 1× PBS, pH 7. 4) was added to each well, and the cells were incubated for another 24 h under the same conditions. The fluorescence signal was quantified using a Tecan Infinite M200 plate reader at excitation and emission wavelengths of 560 and 590 nm, respectively. The EC50 values were calculated using GraphPad Prism 9.5.1 by nonlinear regression with a variable slope. Each EC50 value is the mean ± standard error of the mean of three separate experiments performed in duplicate.

[4] = test system: T. b. brucei 427; experiment: as above; format: cell-based; details: Trypanosoma brucei, 72 h, axenic, 48 h + 24 h resazurin
Experimental: as §2

[5] = test system: K. rhizophila ATCC 9341; experiment: Minimum inhibitory concentration (MIC) testing, serial binary dilution in 96-well plates; format: cell-based; details: Kocuria rhizophila, ATCC9341; 24 h in the dark; lowest concentration with no live microorganisms
Experimental: (§3) Minimum inhibitory concentration (MIC) testing of the extracts was performed using 96-well polypropylene plates against four different microorganisms: the Gram-positive bacterium K. rhizophila ATCC 9341, the Gram-negative bacterium E. coli ATCC 3988, and the yeasts C. albicans CCM 8215 and C. neoformans CCF 1081.
(§4) A working inoculum of each microorganism was prepared as follows: for E. coli and K. rhizophila, the inoculum was grown in LB medium (LB Broth, 25 g/L, incubated at 36 °C); for C. albicans and C. neoformans, YM6.3 medium (maltose extract 10 g, glucose 4 g, yeast extract 4 g per 1 L distilled water, incubated at 24 °C) with a cell concentration of approximately 5 × 10^5 cells/mL for all microorganisms was used.
(§5) Chloramphenicol served as a positive control for bacteria, while cycloheximide was used as a positive control for fungi. The gradient of the test substances was established by serial binary dilution across the wells. The MIC was determined by identifying the lowest concentration at which no live microorganisms were present. Cultivation was performed in the dark for 24 h.

[6] = test system: C. neoformans CCF 1081; experiment: as above; format: cell-based; details: Cryptococcus neoformans, CCF1081; 24 h in the dark; n.d. = activity not detected; highest tested concentration 66.7 μM
Experimental: as §3, §4, §5

[7] = test system: C. albicans CCM 8215; experiment: as above; format: cell-based; details: Candida albicans, CCM8215; 24 h in the dark; n.d. = activity not detected; highest tested concentration 66.7 μM
Experimental: as §3, §4, §5

[8] = test system: E. coli ATCC 3988; experiment: as above; format: cell-based; details: Escherichia coli, ATCC3988; 24 h in the dark; lowest concentration with no live microorganisms
Experimental: as §3, §4, §5

[9] = test system: T. b. gambiense LiTat 1.3; experiment: Anti-trypanosomal activity, resazurin (AB assay), bloodstream form; format: cell-based, T. brucei gambiense; details: Trypanosoma brucei, 72 h, axenic, 48 h + 24 h resazurin
Experimental: as §2

SMILES: COc1cc(O)c2c(c1)C(=O)C1=C(C2=O)[C@@H](OC(C)=O)[C@@H](O)[C@@H](C)O1 [Compound 1, (2R,3S,4R)-3,6-dihydroxy-8-methoxy-2-methyl-5,10-dioxo-3,4,5,10-tetrahydro-2H-benzo[g]chromen-4-yl acetate]
- concentration at which effects on morphology / mitochondrial signal were observed, HeLa cells [1]: 125 μM
- concentration at which effects on morphology / mitochondrial signal were observed, fibroblasts [2]: 5 μM
- EC50 [3]: 20 nM
- EC50 [4]: 60 nM
- MIC [5]: 1 µM
- MIC [6]: 33.3 µM
- MIC [7]: 33.3 µM
- MIC [8]: 1 µM
- EC50 [9]: 40 nM

SMILES: COc1cc(O)c2c(c1)C(=O)C1=C(C2=O)[C@H](O)[C@@H](O)[C@@H](C)O1 (relative stereo) [Compound 3, (2R,3R,4S)-3,4,6-trihydroxy-8-methoxy-2-methyl-3,4-dihydro-2H-benzo[g]chromene-5,10-dione]
- concentration causing complete loss of live adherent cells, HeLa cells [1]: 125 µM
- concentration at which effects on morphology / mitochondrial signal were observed, HeLa cells [1]: 25 μM
- concentration at which effects on morphology / mitochondrial signal were observed, fibroblasts [2]: 125 μM
- EC50 [3]: 5800 nM
- EC50 [4]: 4300 nM
- MIC [5]: 8.3 µM (≈ 2.54 µg/mL)
- MIC [6]: > 66.7 µM
- MIC [7]: > 66.7 µM
- MIC [8]: 2.1 µM (≈ 0.643 µg/mL)
- EC50 [9]: 4100 nM

SMILES: COc1cc(O)c2c(c1)C(=O)C1=C(C[C@@H](OC(C)=O)[C@@H](C)O1)C2=O [Compound 7, (2R,3R)-6-hydroxy-8-methoxy-2-methyl-5,10-dioxo-3,4,5,10-tetrahydro-2H-benzo[g]chromen-3-yl acetate]
- concentration at which effects on morphology / mitochondrial signal were observed, HeLa cells [1]: > 125 μM
- concentration causing complete loss of live adherent cells, fibroblasts [2]: 125 µM
- concentration at which effects on morphology / mitochondrial signal were observed, fibroblasts [2]: > 25 μM
- EC50 [3]: 2400 nM
- EC50 [4]: 900 nM
- MIC [5]: 4.2 µM
- MIC [6]: 33.3 µM
- MIC [7]: 33.3 µM
- MIC [8]: 4.2 µM
- EC50 [9]: 5700 nM

SMILES: COc1cc(O)c2c(c1)C(=O)C1=C(C2=O)[C@@H](O)[C@@H](OC(C)=O)[C@@H](C)O1 [Compound 5, (2R,3R,4R)-4,6-dihydroxy-8-methoxy-2-methyl-5,10-dioxo-3,4,5,10-tetrahydro-2H-benzo[g]chromen-3-yl acetate]
- concentration at which effects on morphology / mitochondrial signal were observed, HeLa cells [1]: 125 μM
- concentration at which effects on morphology / mitochondrial signal were observed, fibroblasts [2]: 5 μM
- EC50 [3]: 20 nM
- EC50 [4]: 60 nM
- MIC [5]: 2.1 µM
- MIC [6]: 33.3 µM
- MIC [7]: 66.7 µM
- MIC [8]: 1 µM
- EC50 [9]: 30 nM
